Tests used:
[1] = tested on: mouse Lewis lung cancer-derived cell line LLC (3LL); assay: Combination experiment with anti-PD-1 antibody, LLC subcutaneous tumor model; format: in vivo, mice; settings: anti-PD-1 antibody 100 µg i.p. twice a week, SN38-βGlcNAc 150 mg/kg i.v. three times a week
Protocol: The effect of combination use of an anti-PD-1 antibody and SN38-βGlcNAc used as a main cancer immunotherapy in current lung cancer treatment was examined. Subcutaneous tumor model mice of a mouse Lewis lung cancer-derived cell line LLC (3LL) reported to have sensitivity to the anti-PD-1 antibody were evaluated, and the Vehicle (DMSO) group was n = 8, the anti-PD-1 antibody administration group was n = 5, the SN38-βGlcNAc administration group was n = 6, and the combination use group of the anti-PD-1 antibody and the SN38-βGlcNAc was n = 5. As an antibody, anti-mouse PD-1 antibody Clone RMP1-14 (Leinco Technologies, Inc.) was used. […]
A specific procedure of the therapeutic experiment is shown below. • (1) Hair on the dorsal side from the upper part of the right foot of C57BL/6JJcl (7 weeks old, female) was shaved with a hair clipper, and then LLC cells 2.0 ×10^6 cells (50 µL) were subcutaneously injected. • (2) The drug administration was started to the individual whose tumor volume reached about 50 to 170 mm^3 after 6 days. […] The anti-PD-1 antibody (Clone RMP1-14) was administered by intraperitoneal administration of 100 µg dissolved in 100 µL of PBS. • (3) The body weight was measured on the day of evaluation, and the tumor volume was evaluated with a vernier caliper. • (4) The time point when the tumor volume reached 2000 to 3000 mm^3 was taken as the endpoint.

[2] = tested on: primary lung squamous cell carcinoma PDX tumor (DLUN013/F_PDX_000162); assay: Tumor proliferation suppression test in PDX model mice; format: in vivo; settings: 200 mg/kg i.v., 6 times over 2 weeks
Protocol: With respect to SN38-βGlcNAc showing high sensitivity by the organoid test, an in vivo tumor proliferation suppression test was performed using a primary lung squamous cell carcinoma PDX tumor (DLUN013/F_PDX_000162) established at Fukushima Medical University Medical and Industrial TR Center from the same patient. 200 mg/kg of SN38-βGlcNAc was intravenously administered to PDX subcutaneous tumor model mice a total of 6 times over 2 weeks as shown in the administration schedule (a of Fig. 30), and the tumor proliferation suppression effect was evaluated. The Vehicle (DMSO administration) group and the SN38-βGlcNAc administration group were n = 6, respectively.
A specific procedure of the therapeutic experiment is shown below. • (1) The tube containing the frozen tumor tissue was thawed in a thermostatic water bath at 37°C. […] The SN38-βGlcNAc was prepared by dissolving a 400 mM of DMSO stock in PBS, and was intravenously administered from the tail vein 3 times a week for 2 weeks at a dose of 200 mg/kg with a total amount of 100 µL. • (5) The tumor volume and body weight were measured on the day of evaluation. • (6) The tumor was removed, and then subjected to fluorescence imaging using HMRef-βGlcNAc (50 µM, PBS solution) in the presence and absence of PUGNAc (500 µM), which is an inhibitor of β-hexosaminidase.

Question: With `CCc1c2c(nc3ccc(O[C@@H]4O[C@H](CO)[C@@H](O)[C@H](O)[C@H]4NC(C)=O)cc13)-c1cc3c(c(=O)n1C2)COC(=O)[C@]3(O)CC` [SN38-βGlcNAc] as the compound, how does the body weight [1] read?
Answer: no body weight loss was found in any group

Question: What about the “tumor proliferation suppression (tumor volume)” value ([1]; vs Vehicle) of the same compound?
Answer: showed tumor proliferation suppression

Question: And the body weight change [2]?
Answer: No body weight change was observed

Question: What about the “tumor proliferation suppression effect (tumor volume)” value ([2]; n = 6, vs Vehicle) of the same compound?
Answer: the tumor growth was significantly suppressed

From EP4772520A1, “NOVEL PRODRUG-TYPE ANTICANCER AGENT TARGETING CANCER-SPECIFIC ENZYME ACTIVITY” (priority 2023, dated 2025)
